The experiment concerns the target Plasma kallikrein (Homo sapiens, UniProt P03952). Kind of experiment: Kallikrein Assay. The method, then: The effectiveness of a compound of the present invention as an inhibitor of Kallikrein can be determined using a relevant purified serine protease, and an appropriate synthetic substrate. The rate of hydrolysis of the chromogenic or fluorogenic substrate by the relevant serine protease was measured both in the absence and presence of compounds of the present invention. Assays were conducted at room temperature or at 37° C. […] A decrease in the rate of fluorescence change in the presence of inhibitor is indicative of enzyme inhibition. Such methods are known to one skilled in the art. […] Times required to achieve equilibration between enzyme and inhibitor were determined in control experiments. […] IC50 was determined by inflection point from a four parameter logistic curve fit. Ki was calculated using the Cheng Prusoff equation, Ki=IC50/(1+([S]/Km)).

Plasma kallikrein, sequence (P03952 20-390 limits assumed): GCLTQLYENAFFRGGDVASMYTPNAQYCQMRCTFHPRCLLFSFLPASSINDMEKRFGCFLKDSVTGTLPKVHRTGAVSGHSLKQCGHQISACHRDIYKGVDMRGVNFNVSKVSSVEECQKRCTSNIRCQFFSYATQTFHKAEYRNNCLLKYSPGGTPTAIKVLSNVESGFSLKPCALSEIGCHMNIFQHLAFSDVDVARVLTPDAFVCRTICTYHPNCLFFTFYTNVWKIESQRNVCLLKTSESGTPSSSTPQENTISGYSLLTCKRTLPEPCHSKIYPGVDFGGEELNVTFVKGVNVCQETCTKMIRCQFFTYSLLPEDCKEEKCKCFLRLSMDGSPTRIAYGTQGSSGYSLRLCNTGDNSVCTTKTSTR
Plasma kallikrein, sequence (P03952 391-638 limits assumed): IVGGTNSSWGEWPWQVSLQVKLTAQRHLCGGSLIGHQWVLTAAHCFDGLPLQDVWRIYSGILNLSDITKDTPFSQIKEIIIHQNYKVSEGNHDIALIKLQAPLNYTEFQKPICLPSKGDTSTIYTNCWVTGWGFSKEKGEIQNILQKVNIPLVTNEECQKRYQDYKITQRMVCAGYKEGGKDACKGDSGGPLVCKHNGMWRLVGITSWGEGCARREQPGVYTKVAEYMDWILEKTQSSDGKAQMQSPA

As for `COc1cc([C@@H](CC2CC2)C(=O)Nc2ccc(C(=O)O)cc2)[n+]([O-])cc1-c1c(C(F)F)ccc(Cl)c1F` [US10143681, Example 69], the IC50 turned out to be 42 nM. That is a double-digit nanomolar value.

As a reminder, the IC50 is the point on the concentration scale where inhibition reaches its midpoint. A higher IC50 goes with weaker potency.

Source of the values: BindingDB's records for patent US10143681 (Merck Sharp & Dohme, 2018).
